Values quoted from earlier work in patent US6994864B2, “Composition containing 7-hydroxy DHEA and/or 7-keto DHEA and at least a carotenoid” (L'Oreal, priority 2000, dated 2006).

Legend:
skin of rats = details: on rats

C[C@]12CC[C@H](O)CC1=C[C@@H](O)[C@@H]1[C@@H]2CC[C@]2(C)C(=O)CC[C@@H]12 [7α-hydroxy-DHEA]
proliferation of the fibroblasts (fibroblasts): increase | viability of the human keratinocytes (human keratinocytes): increase | elastin and collagen content of the skin (skin of rats): increased | thickness of the dermis (skin of rats): increased
